The text below walks through data of patent US11154554B2, “Therapeutic combinations of a MEK inhibitor and a BTK inhibitor” (Acerta Pharma B.V., priority 2015, dated 2021).

Data set [1] has as its system human platelet-mediated thrombus formation. Kind of data set: In vivo human thrombus formation in VWF HA1 mice (laser injury). Particulars: human platelets preincubated with inhibitor, laser-induced injury.
The subject of another data set is B cell receptor. The data set is described as follows: Whole blood B cell receptor signalling assay (CD69 on CD19+ B cells). Particulars: whole blood of four healthy donors, 2 hours with compound, anti-human IgD 10 μg/mL for 18 hours, read-out: EC50, CD69 on gated CD19+ B cells. Format: cell-based.
For data set [2] the following is noted: within the tested dose range (through 840 mg); cited from earlier work.
Data set [3] has as its system NK cells. Kind of data set: Rituximab ADCC mediated by NK cells. Format: cell-based.
Data set [4] relates to GPVI. The data set is described as follows: GPVI platelet aggregation.
Data set [5] deals with CD8^+ T cells. Kind of data set: IFN-γ level measurements for CD8+ T cell function. Format: cell-based. Particulars: relative to vehicle.
In data set [6] the test system is CD8^+ T cells. The data set is described as follows: Cytotoxicity assay for CD8+ T cell function. As to conditions: relative to vehicle. Format: cell-based.
Data set [7] has as its system GPVI.
The next data set concerns hepatocytes. Kind of data set: In vitro metabolism in hepatocytes with 14C-labeled drug. It counts as in vitro ADME, mouse, rat, dog, rabbit, monkey, and human.
A short description of data set [8]: Metabolism in plasma, bile, and urine. It counts as in vivo. Particulars: rats, dogs, and monkeys; preliminary evaluations.
Data set [9] has as its system BCR activation markers CD69 and CD86. Kind of data set: In vivo potency, BCR activation markers after oral gavage. Particulars: mice, 3 hours post-dose, BCR stimulated with IgM. Here is the method: Mice were gavaged at increasing drug concentration and sacrificed at one time point (3 hours post-dose). BCR is stimulated with IgM and the expression of activation markers CD69 and CD86 are monitored by flow cytometry to determine ECovalues.
CD86 and CD69 are cell surface proteins that are BCR activation markers. […] BCR was stimulated with IgM and the expression of activation marker CD69 and CD86 are monitored by flow cytometry to determine EC50 values.

The test system of data set [10] is 80 known pharmacologic targets such as G-protein-coupled receptors, nuclear receptors, proteases, and ion channels. The data set is described as follows: Binding assays on 80 known pharmacologic targets. As to conditions: screened at 10 μM.
Another data set concerns the target EGFR (Homo sapiens, UniProt P00533). Kind of data set: EGF receptor phosphorylation in A431 cells.
The subject of another data set is CYP enzymes. Kind of data set: Nonclinical CYP interaction studies. Format: in vitro ADME.
For the next data set, the target named is T1, BTK (Mus musculus, UniProt P35991).
T1 construct: MDSCs were purified from tumor bearing PDA mice; endogenous in cells; host or cells: granulocytic and monocytic MDSCs from PDA mice dosed in vivo
Kind of data set: Molecular probe assay of BTK occupancy in MDSCs of PDA mice. Format: in vivo. Particulars: 15 mg/kg BID; granulocytic and monocytic MDSC compartments; Day 8, 4 hours post dose. The source says:
A molecular probe assay was used to calculate the percent irreversible occupancy of total BTK.

In data set [11] the test system is KrasLA2 non-small cell lung cancer (NSCLC) model. Kind of data set: KrasLA2 genetic tumor model of NSCLC. It counts as in vivo, mice. As to conditions: 15 mg/kg. The text has this: The model is designed to have sporadic expression in single cells of G12D mutant Kras off its own promoter triggered by spontaneous intrachromosomal recombination. Johnson, et al. Nature 2001, 410, 1111-16. While the mutant Kras protein is expressed in a few cells in all tissues, tumor development is seen only in the lung at high penetrance.

The next data set concerns the target CYP3A4 (Homo sapiens, UniProt P08684). The data set is described as follows: Loss of parent drug as catalyzed by CYPs. Particulars: in vitro. Format: in vitro ADME.
Data set [12] can be described thus: Glutathione binding and depletion in vitro. Format: in vitro ADME.
The test system of data set [13] is NK cells. The data set is described as follows: NK cell degranulation/ADCC whole blood assay with obinutuzumab. Format: cell-based, human. As to conditions: 1 hour pretreatment, MEC-1 opsonised with obinutuzumab 1 μg/mL, 4 hours.
Protocol: Degranulation in whole blood was performed as follows. […] Exponentially growing cells were used. On the day of the experiment, 8 mL of blood was drawn from a normal volunteer into a test tube containing desirudin to obtain a final concentration of 50 μg/mL. A white blood cell (WBC) count of whole blood was performed. […] The ibrutinib control and two blinded BTK inhibitors were diluted in X-VIVO 15 serum-free hematopoietic cell medium (Lonza Group, Ltd.) to concentrations of 200 μM, 20 μM and 2 μM. 170 μL aliquots of unmanipulated whole blood were incubated with 10 μL BTK inhibitors or X-VIVO 15 medium for one hour into a plate. […] The samples were placed in a 5% CO2 incubator for 4 hours at 37° C.
After 4 hours, the samples were mixed gently and 50 μL aliquots were removed from each well and placed in fluorescence-activated cell sorting (FACS) test tubes. A 20 μL aliquot of anti-CD56-APC antibody and anti-CD107a-PE antibody was added. The samples were incubated for 20 minutes at room temperature in the dark. An aliquot of 2 mL of FACS lysing solution (BD Biosceinces) was added. The samples were again incubated for 5 minutes, and then centrifuged at 2000 rpm for 5 minutes. Supernatant was discarded and the cell pellet was resuspended in 500 μL of PBS. The samples were analyzed on the flow cytometer for CD107a^+ NK cells (CD56^+).

Where two headings read alike, the source gives them in different places.

Sequence of EGFR (P00533 25-1210): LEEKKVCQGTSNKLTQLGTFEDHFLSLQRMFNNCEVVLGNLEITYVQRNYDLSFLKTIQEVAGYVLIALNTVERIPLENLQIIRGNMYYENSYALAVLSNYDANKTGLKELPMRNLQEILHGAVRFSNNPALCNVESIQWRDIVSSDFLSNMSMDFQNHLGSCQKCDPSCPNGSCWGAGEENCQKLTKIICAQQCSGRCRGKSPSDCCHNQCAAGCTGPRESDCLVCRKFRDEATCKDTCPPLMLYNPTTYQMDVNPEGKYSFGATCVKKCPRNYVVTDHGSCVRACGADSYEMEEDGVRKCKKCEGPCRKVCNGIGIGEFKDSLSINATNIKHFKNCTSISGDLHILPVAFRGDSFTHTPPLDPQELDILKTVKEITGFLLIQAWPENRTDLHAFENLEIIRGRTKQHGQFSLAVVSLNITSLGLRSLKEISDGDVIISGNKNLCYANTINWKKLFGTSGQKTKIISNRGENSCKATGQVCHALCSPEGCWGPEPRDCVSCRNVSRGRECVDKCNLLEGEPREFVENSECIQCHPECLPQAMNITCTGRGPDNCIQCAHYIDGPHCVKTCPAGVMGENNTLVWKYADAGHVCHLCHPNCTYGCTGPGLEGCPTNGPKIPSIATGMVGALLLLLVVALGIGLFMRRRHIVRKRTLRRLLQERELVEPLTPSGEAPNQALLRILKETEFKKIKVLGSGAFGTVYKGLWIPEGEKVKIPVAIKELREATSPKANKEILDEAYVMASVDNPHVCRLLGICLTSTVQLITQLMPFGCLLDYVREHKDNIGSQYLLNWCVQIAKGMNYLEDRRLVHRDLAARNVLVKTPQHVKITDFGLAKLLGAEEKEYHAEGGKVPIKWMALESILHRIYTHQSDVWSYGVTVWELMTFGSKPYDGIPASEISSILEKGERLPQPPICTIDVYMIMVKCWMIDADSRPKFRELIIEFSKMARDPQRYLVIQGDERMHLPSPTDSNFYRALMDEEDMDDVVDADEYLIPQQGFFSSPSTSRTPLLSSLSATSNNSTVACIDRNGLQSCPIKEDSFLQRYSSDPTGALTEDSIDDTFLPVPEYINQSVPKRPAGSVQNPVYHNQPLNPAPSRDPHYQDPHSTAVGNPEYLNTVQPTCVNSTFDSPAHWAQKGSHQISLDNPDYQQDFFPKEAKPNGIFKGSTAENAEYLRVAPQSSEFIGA
T1 sequence (P35991 whole entry): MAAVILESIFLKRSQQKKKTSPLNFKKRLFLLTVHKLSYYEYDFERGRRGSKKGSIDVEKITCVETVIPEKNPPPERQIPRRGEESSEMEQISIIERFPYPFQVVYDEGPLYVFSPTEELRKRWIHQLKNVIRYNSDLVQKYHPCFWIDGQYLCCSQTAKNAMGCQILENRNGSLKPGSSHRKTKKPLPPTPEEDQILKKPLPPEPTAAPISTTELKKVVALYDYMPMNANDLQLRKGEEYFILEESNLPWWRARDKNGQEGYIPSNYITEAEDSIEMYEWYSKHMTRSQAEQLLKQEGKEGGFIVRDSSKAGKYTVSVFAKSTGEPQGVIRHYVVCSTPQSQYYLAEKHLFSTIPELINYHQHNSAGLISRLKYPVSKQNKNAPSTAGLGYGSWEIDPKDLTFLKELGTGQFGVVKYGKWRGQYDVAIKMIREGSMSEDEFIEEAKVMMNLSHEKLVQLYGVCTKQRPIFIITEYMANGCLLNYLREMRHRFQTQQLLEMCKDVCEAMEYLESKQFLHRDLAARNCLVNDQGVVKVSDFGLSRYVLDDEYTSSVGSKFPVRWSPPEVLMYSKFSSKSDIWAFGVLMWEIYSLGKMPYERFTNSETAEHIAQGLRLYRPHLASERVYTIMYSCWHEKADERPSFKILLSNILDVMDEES
Sequence of CYP3A4 (P08684 whole entry): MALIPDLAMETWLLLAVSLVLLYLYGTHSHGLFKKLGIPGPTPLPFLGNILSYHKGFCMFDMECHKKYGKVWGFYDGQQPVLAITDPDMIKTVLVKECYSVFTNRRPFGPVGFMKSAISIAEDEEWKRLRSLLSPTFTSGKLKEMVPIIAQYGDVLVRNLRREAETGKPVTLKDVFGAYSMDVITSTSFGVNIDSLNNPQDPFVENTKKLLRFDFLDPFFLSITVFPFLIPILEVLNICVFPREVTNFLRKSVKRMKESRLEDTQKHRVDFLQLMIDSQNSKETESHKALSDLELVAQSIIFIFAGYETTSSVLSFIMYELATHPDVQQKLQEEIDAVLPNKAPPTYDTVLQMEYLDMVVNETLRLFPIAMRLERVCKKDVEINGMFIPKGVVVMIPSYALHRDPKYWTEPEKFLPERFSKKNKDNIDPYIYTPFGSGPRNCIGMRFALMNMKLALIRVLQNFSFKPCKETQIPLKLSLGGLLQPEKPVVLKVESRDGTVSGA

Consider `C=CC(=O)Nc1cccc(Nc2nc(Nc3ccc(OCCOC)cc3)ncc2F)c1` [Formula (17), N-(3-((5-fluoro-2-((4-(2-methoxyethoxy)phenyl)amino)pyrimidin-4-yl)amino)phenyl)acrylamide, reference compound], for which the “effect on human platelet-mediated thrombus formation” value in data set [1] was “effect similar to Formula (10) (ibrutinib)”. Further, the EC50 (as a rule, the concentration needed to bring the measured effect to its halfway point) in the data set with B cell receptor worked out at 121 nM.
`C=CC(=O)N1CCC[C@@H](n2nc(-c3ccc(Oc4ccccc4)cc3)c3c(N)ncnc32)C1` [Formula (10), 1-[(3R)-3-[4-amino-3-(4-phenoxyphenyl)-1H-pyrazolo[3,4-d]pyrimidin-1-yl]piperidin-1-yl]prop-2-en-1-one, reference compound]: in data set [2], the “maximum tolerated dose (MTD)” value is “No maximum tolerated dose (MTD) was apparent”. For the same molecule, the “antagonism of rituximab ADCC effects mediated by NK cells” value with NK cells [3] is reported as “undesirably antagonizes”. Besides, in the data set with GPVI [4] (human platelets, CVX-induced), the “inhibition of GPVI platelet aggregation” value is “significantly inhibits”. Further, the “CD8+ T cell function as measured by IFN-γ level” value in the data set on CD8^+ T cells [5] is “affects CD8^+ T cell function”. Besides, the “CD8+ T cell function as measured by % cytotoxicity” value in the data set on CD8^+ T cells [6] is “affects CD8^+ T cell function”. In addition, the half-maximal effective concentration (EC50) in the data set with B cell receptor amounted to 6.1 nM.
For the molecule `CC#CC(=O)N1CCC[C@H]1c1nc(-c2ccc(C(=O)Nc3ccccn3)cc2)c2c(N)nccn12` [Formula (2), (S)-4-(8-amino-3-(1-(but-2-ynoyl)pyrrolidin-2-yl)imidazo[1,5-a]pyrazin-1-yl)-N-(pyridin-2-yl)benzamide], the “antagonism of rituximab ADCC effects mediated by NK cells” value with NK cells [3] is listed as “does not antagonize”. Moreover, the “inhibition of GPVI platelet aggregation” value with GPVI [7] is on record as “does not”. Moreover, in the data set on hepatocytes (hepatocytes of six species), the unique human metabolite result is “No unique human metabolite was identified”. For the same molecule, in the data set on hepatocytes (mouse, rat, dog, rabbit, monkey, and human hepatocytes, 14C-labeled drug), the metabolites in hepatocytes result is “two mono-oxidized metabolites and a glutathione conjugate”. Further, the “metabolic processes in plasma, bile, and urine” value in data set [8] is “metabolic processes of oxidation, glutathione binding, and hydrolysis”. Besides, the IC50 (usually the concentration at which inhibition is half-maximal) in the data set on GPVI [4] (read-out: IC50, GPVI platelet aggregation, purified human platelets, Convulxin (CVX)) stood at 1150 nM. The “CD8+ T cell function as measured by IFN-γ level” value with CD8^+ T cells [5] was “no effect”. For the same molecule, the “in vivo potency at inhibiting expression of activation markers CD69 and CD86” value in data set [9] was “more potent at inhibiting expression of activation makers than Formula (10) (ibrutinib)”. Also, the “CD8+ T cell function as measured by % cytotoxicity” value with CD8^+ T cells [6] is listed as “no effect”. In addition, in data set [10], the “activity in binding assays with 80 known pharmacologic targets” value was “significant activity only against the A3 adenosine receptor”. In addition, the “inhibition of in vitro EGFR phosphorylation” value against EGFR (10 μM, A431 human epidermoid cancer cell line) was “no inhibition”. The inhibition – broadly, the change of the read-out against control, counted positive when it falls – at 10 µM at EGFR (A-431, read-out: EGF-induced p-EGFR inhibition) came to 7%. For the same molecule, in data set [1], the “effect on human platelet-mediated thrombus formation” value was “no significant effect”. Moreover, in the data set with CYP enzymes, the “potential for CYP-mediated drug-drug interactions” value is “very unlikely to cause clinical drug-drug interactions”. For the same molecule, the “irreversible occupancy of total BTK in MDSCs” value on BTK is given as “Complete BTK occupancy”. In [11], the “effects on TAMs, MDSCs, Tregs, and CD8+ cells” value is “consistent with suppression of the solid tumor microenviroment”; the number of tumors entry is “fewer overall tumors”; the “tumor volumes versus vehicle” value is recorded as “significant decrease”. In addition, the 50% effective concentration (EC50) in the data set with B cell receptor turned out to be 8.2 nM. For the same molecule, the “CYP responsible for metabolism” value on CYP3A4 is given as “metabolized by CYP3A4”. Moreover, in data set [12], the “glutathione binding and depletion” value is “binds to glutathione but does not deplete glutathione”. The “effect on CD56+/CD107a+ NK cells, obinutuzumab-stimulated degranulation” value with NK cells [13] is “minimal effect”.
